Measured values as given in patent publication US20050215646A1, “Methods for treating multiple sclerosis and pharmaceutical compositions therefor” (Renovis, Inc., priority 2004, published 2005).

Key:
CXCR1 = target: T1, CXCR1 (Homo sapiens, UniProt P25024); assay: Migration of CHO-K1 cells expressing CXCR1; format: cell-based; conditions: CHO-K1 cells expressing CXCR1, 2 hours; degree similar to IL-8; FIG. 3
T1 construct: cDNA fragments encompassing chemokine receptor coding regions; expressed in transfected cells; host or cells: CHO-K1 (ATCC CCL-61), transient transfection
T1 sequence (P25024 1-350): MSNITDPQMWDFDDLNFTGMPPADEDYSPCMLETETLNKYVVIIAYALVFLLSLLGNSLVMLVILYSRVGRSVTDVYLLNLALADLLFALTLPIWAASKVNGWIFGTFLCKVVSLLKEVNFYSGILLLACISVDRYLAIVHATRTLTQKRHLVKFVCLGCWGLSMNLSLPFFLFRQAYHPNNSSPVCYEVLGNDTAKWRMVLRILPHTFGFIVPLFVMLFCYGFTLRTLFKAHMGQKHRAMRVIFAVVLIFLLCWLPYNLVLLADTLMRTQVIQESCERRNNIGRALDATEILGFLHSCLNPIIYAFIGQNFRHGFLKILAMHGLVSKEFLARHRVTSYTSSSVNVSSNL
Experimental: (§1) CHO-K1 cells were obtained from American Type Culture Collection (CCL-61) and cultured in Ham's F12 media supplemented with 10% heat inactivated FBS and 100 μg/ml penicillin/streptomycin. cDNA fragments encompassing chemokine receptor coding regions were obtained from cDNAs synthesized from HL-60 cells and/or human peripheral blood mononuclear cells by the polymerase chain reaction. Expression constructs of chemokine receptors were generated by cloning PCR fragments into expression vector pEF6/V5-TOPO (K9610-20, Invitrogen). Transient transfections were carried out with Fugene 6 transfection reagent (1814443, Roche Applied Science) according to the manufacturer's instructions.
(§2) The CHO-chemokine receptor cells were used in migration assays 36 hours following transfection. In vitro migration assays were performed using a Neuroprobe Blindwell migration apparatus (AA12, Neuro Probe, Inc./16008 Industrial Drive, Gaithersburg, Md. 20877) according to the manufacturer's instructions with slight modifications. […]
(§3) Following the migration assays, migrated cells that had adhered to the underside of the filter were quantitated according to the manufacturer's instructions. […] Stained filtered were mounted onto microscope slides and migrated cells in each well were manually counted under 40× magnification.

CCR receptors = assay: Migration of CHO-K1 cells expressing CCR receptors; format: cell-based, human; conditions: 2 hours, FIG. 4
Experimental: as §1, §2, §3

[1] = tested on: differentiated HL-60 cells; assay: Inhibition of chemoattractant-mediated chemotaxis of differentiated HL-60 cells after pretreatment; format: cell-based; conditions: cells pre-incubated with compound 30 minutes at 37° C, migration 2 hours
Experimental: Compound 1 was prepared according to the methods of the invention and tested as described below. Briefly, cells were pre-incubated with Compound 1, and then assayed for chemokine-mediated cell migration.
In vitro cell migration assays were performed using differentiated HL-60 cells. HL-60 cells were differentiated by adding 1.4% DMSO to RPMI-1640 media supplemented with 10% FBS and 100 μg/ml penicillin/streptomycin. Cells on the sixth day following differentiation were used for in vitro migration assays.
In vitro migration assays were performed using a Neuroprobe migration apparatus (MBB96, Neuro Probe, Inc., Gaithersburg, Md. 20877) according to the manufacturer's protocol with slight modifications. Briefly, about 370 μl of diluted chemokine or control was added to a 96-well fibronectin-coated, black-walled Packard plate. Chemoattractants included 100 nM formyl-methionyl-leucyl-phenylalanine (fMLP), 30 ng/ml chemokine Stromal Cell-Derived Factor-1 (SDF-1), 300 ng/ml chemokine IL-8. Negative control included migration media alone. The plate was placed into the migration apparatus, an 8 μm framed filter was carefully placed on top of the plate, and the apparatus was screwed down. […]
After staining, the cells were washed with 200 μl phosphate-buffered saline. Cell number in each well was quantitated using ImageXpress (Axon Instruments) or a fluorescent plate reader.

CXCR4 = CXCR4 (Homo sapiens, UniProt P61073); assay: Migration of CHO-K1 cells expressing CXCR4; format: cell-based; parameters: cDNA fragments encompassing chemokine receptor coding regions; expressed in transfected cells; host or cells: CHO-K1 (ATCC CCL-61), transient transfection; conditions: CHO-K1 cells expressing CXCR4, 2 hours; FIG. 3
Chain of CXCR4 (P61073 whole entry, the tested form may be a part): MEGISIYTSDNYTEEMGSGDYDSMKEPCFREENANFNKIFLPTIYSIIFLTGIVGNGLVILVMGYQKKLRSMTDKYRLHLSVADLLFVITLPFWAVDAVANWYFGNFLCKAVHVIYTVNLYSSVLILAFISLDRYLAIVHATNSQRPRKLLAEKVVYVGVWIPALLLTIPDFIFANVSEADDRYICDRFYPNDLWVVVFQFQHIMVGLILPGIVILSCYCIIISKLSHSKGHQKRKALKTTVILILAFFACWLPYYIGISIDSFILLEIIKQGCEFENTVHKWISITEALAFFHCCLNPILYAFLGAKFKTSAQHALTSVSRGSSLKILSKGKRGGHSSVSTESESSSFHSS
Experimental: as §1, §2, §3

induction of cell migration (CXCR1): induced migration
induction of cell migration (CXCR4): induced migration
Structure (SMILES): CC(C)(C)c1cc(/C=[N+](\[O-])C(C)(C)C)cc(C(C)(C)C)c1O [Compound 1, α-(4-hydroxy-3,5-di-tert-butylphenyl)-N-tert-butylnitrone]
induction of cell migration (CCR receptors): did not induce migration
chemotaxis of the cells toward CXC chemokines such as IL-8 and SDF-1 ([1]; FIG. 1): inhibits
chemotaxis of the cells toward fMLP and CCR chemokines such as Rantes and MIP-1 ([1]; FIG. 2): inhibits
